# Laboratory results: US11083197B2, “Herbicidal composition comprising chromone derivatives and a method for weed control” (INVESTIGACIONES BIOLÓGICAS EN AGROQUÍMICOS ROSARIO S.A., priority 2015, dated 2021)
# Legend:
# [1] = system: creeping bentgrass (A. stolonifera); assay: Germination bioassay with creeping bentgrass; type: in vivo, Agrostis stolonifera; settings: 1 mM; 24-well plates; rating scale of 0 to 5
# Protocol: (§1) DCM extract of flowers of A. visnaga (1.6 g) was divided in two 800 mg halves and each one was subjected to column chromatography using an Isolera One system (Biotage), equipped with UV detector (302 and 365 nm) and automatic fraction collector. Separation was performed by normal-phase chromatography column using a SNAP Cartridge KP-Sil (37×157 mm, 50 μm irregular silica, 100 g, Biotage) and a pre-packaged SNAP Samplet Cartridge KP-Sil (37×17 mm, Biotage). A full gradient of hexane:ethyl acetate was used for elution, from 100:0 to 0:100 over 3000 ml. Flow was 40 ml/min and 25 ml fractions were collected. Equal fractions were combined based on similarities on their TLC and chromatogram profiles providing nineteen fractions named I to XIX. All fractions were evaluated for their phytotoxicity on germination bioassay of lettuce (L. sativa) and creeping bentgrass (A. stolonifera).
# (§2) A filter paper and 5 lettuce or 10 mg of creeping bentgrass seeds were placed in each well of a 24-well plate. Stock solutions (10×) of test compounds were prepared in acetone. 180 μl of distilled water were added to each well together with 20 μl of stock solution or acetone in solvent control. Final concentration of acetone was 10% v/v. Plates were sealed with Parafilm, and incubated at 26° C. in a growth chamber set at 173 μmol m^−2 s^−1 continuous photosynthetically active radiation. Phytotoxic activity was qualitatively evaluated by visually comparing germination in each well with solvent control at 7 days. A qualitative estimation of phytotoxicity was obtained by using a rating scale of 0 to 5, where 0 was no effect, and 5 was no germination of seeds. This procedure was also used for testing the phytotoxicity of pure compounds on ryegrass. On this experiment 12-well plates were used. 10 seeds were placed per well and final volume was 300 μl in each one. During dose-response bioassays used for IC50 determination, germination percentage and length of plants were measured at 7 days in order to determine the concentration required for 50% germination and growth inhibition (IC50). All experiments were done in triplicate.
# lettuce (Lactuca sativa) = assay: Germination / dose-response bioassay with lettuce; type: in vivo; settings: 1 mM; 24-well plates; rating scale of 0 to 5
# Protocol: as §1, §2
# Using method described in Example 1, compounds of Formula III and IV above were tested against lettuce and ryegrass.
# The percentage of germination and length of plants were determined at 7 days. Data represents means of three replicates±SD. The IC50 values, for both germination and growth inhibition by compounds III and IV on lettuce and ryegrass, were obtained from estimated parameters in the regression curves.
# Statistical Analysis. Data from dose-response experiments were analyzed by a log-logistic model^37-38 using the dose-response curve module^39 of R software version 2.2.1.^40 Concentrations required for 50% germination or growth inhibition relative to control (IC50 values) were obtained from estimated parameters in the regression curves. The standard error (SE) of each estimation is provided. Data from phytotoxicity bioassays in the laboratory and greenhouse, ROS and cell death quantifications were analyzed by ANOVA using the InfoStat statistical software version 2015,^41 and Scheffe's test was employed to compare the means at α=0.05.
# ryegrass = assay: Postemergence bioassay with ryegrass in Petri dishes; type: in vivo; settings: Lolium multiflorum, post-emergence, day 6 (4 days after application), read-out: Growth inhibition (%) as percentage of control
# Protocol: Plant length was measured at day 6 (4 days after application of the compounds)
# Plant length's axis starts in 5 mm because seeds were pre-incubated in water, so all seedlings were around 5 mm long at the beginning of the treatment.
# lettuce = assay: Postemergence bioassay with lettuce in Petri dishes; type: in vivo; settings: Lactuca sativa, post-emergence, read-out: Average growth inhibition (%) as percentage of control
# Protocol: Compounds of formula III and IV above were tested at different concentrations in a postemergence bioassay (in Petri dishes) against lettuce. Lettuce seeds were pre-incubated in Petri dishes with a filter paper and water for 2 days. After that, seedlings (15 mm approx.) were moved to a new Petri dish containing 4 mL of an aqueous solution of each compound or commercial herbicide. Plants length was measured at day 6 (4 days after postemergence application of the compounds). The results were compared to those obtained with acetochlor and glyphosate.
# Plant length's axis starts in 15 mm because seeds were pre-incubated in water, so all seedlings were around 15 mm long at the beginning of the treatment.
SMILES,"Phytotoxicity at day 7, Creeping bentgrass [1]","Phytotoxicity at day 7, Lettuce (lettuce (Lactuca sativa))",further results
"Cc1cc(=O)c2c(O)c3ccoc3c(O)c2o1 [4,9-dihydroxy-7-methyl-5H-furo[3,2-g]chromen-5-one]",1,3,–
"COc1c2occc2c(OC)c2c(=O)cc(C(=O)O)oc12 [4,9-dimethoxy-5-oxo-5H-furo[3,2-g]chromen-7-carboxilic acid]",3,3,–
"COc1c2occc2c(O)c2c(=O)cc(C)oc12 [4-hydroxy-9-methoxy-7-methyl-5H-furo[3,2-g]chromen-5-one]",1,2,–
"CCOCN(C(=O)CCl)c1c(C)cccc1CC [Acetochlor, reference compound]",–,–,"inhibition at 540 µM (ryegrass; 540 μM): 97%; inhibition at 540 µM (lettuce; 0.54 mM, day 6 (4 days after postemergence application)): 60%"
"O=c1ccoc2ccccc12 [Chromone, 1-benzopyran-4-one]",4,3,–
"O=C(O)CNCP(=O)(O)O [Glyphosate, reference compound]",–,–,inhibition at 750 µM (ryegrass; 750 μM): 75%; inhibition at 750 µM (lettuce): 45%
"COc1c2ccoc2cc2oc(COC3OC(CO)C(O)C(O)C3O)cc(=O)c12 (centres unmarked) [Khelloside, Khellol-glucoside]",2,1,–
